Laboratory results reported in article PMC8026785, “The pharmacokinetics of [^18F]UCB-H revisited in the healthy non-human primate brain” (EJNMMI Research, 2021).

Tests used:
[1] = Plasma free fraction by ultrafiltration; type: in vitro ADME; conditions: NHP plasma, before tracer injection
Method: The fraction of [^18F]UCB-H in NHP plasma samples not bound to plasma protein was measured before PET injection using a previously described ultrafiltration method. In brief, standard amounts of [^18F]UCB-H (≈15 kBq) were added to 200 μL plasma that was applied to Microcon® filtration devices containing an YM-10 membrane (Millipore, France). The devices were centrifuged for 10 min at 10,000 g (Sigma 2-16KL, France). [^18F]UCB-H activity concentration in the resulting ultrafiltrate (≈70 μL, CFP) and a sample of plasma (CP) were counted. The free fraction (fp) was calculated as: fp = CFP/CP and measured in triplicates.

[2] = Arterial blood sampling and radiometabolite analysis after i.v. [^18F]UCB-H; type: in vivo, cynomolgus monkeys (Macaca fascicularis); conditions: for intact parent fraction: arterial blood
Method: (§1) All four non-human primates (NHP) underwent a 2-h (2 h) test and retest PET scan; two NHP underwent an additional 4-h (4 h) retest PET scan. Three NHP underwent one 4-h (4 h) displacement PET scan. Arterial blood sampling was performed during test and retest scans with PET imaging spaced by at least 3 weeks between each scan. To this end, the femoral artery opposite to the saphenous vein used for radioligand injection was cannulated. For the 2-h (2 h) scans, we collected in total 28 blood samples of 1 mL: 16 samples during the first 5 min followed by […] every 5 min and […] every 10 min. For the 4 h scans, we collected an additional 6 samples every 20 min during the last two hours (34 samples in total). Larger samples (2 – 3 mL) were collected at 5, 15, 30, 60, 90, 120 min (2 h) and at 180, 240 min (4 h) for metabolite analysis. Displacement of [^18F]UCB-H was done by intravenous (IV) administration 90 min after [^18F]UCB-H injection of a bolus of 30 mg/kg LEV, or of 80 µg/kg (≈250 nmol/kg) or 5 mg/kg (≈15 µmol/kg) of cold [^19F]-UCB-H. Full experimental design of all NHP is outlined in Additional file 1: Table 1.
Plasma was separated from whole-blood by centrifugation (5 min, 2054xg, 4 °C) and 50 µL of plasma and whole-blood were counted using a PET cross-calibrated gamma well counter (WIZARD^2, PerkinElmer, France) to obtain the whole-blood and plasma activity curves. All data were corrected for radioactive decay from the injection time. For the larger blood samples, 500 µL plasma was deproteinized with acetonitrile. The supernatant was injected in high-performance liquid chromatography, equipped with an Atlantis® T3 5 μm 4.6 × 150 mm column (Waters) and an Atlantis® T3 5 μm 3.9 × 5 mm pre-column (Waters), with an LB-513 radioactivity flow detector (Berthold, La Garenne Colombes, France, MX Z100 cell). The eluant was collected in intervals of 15 s (fraction collector III, Waters, France) and counted in the gamma well counter (WIZARD^2, PerkinElmer, France) to measure total activity. [^18F]UCB-H parent fraction was calculated as a percentage of the total radioactivity (metabolites and parent).
For each animal, a 2-exponential decay function was fitted to [^18F]UCB-H parent fraction, which was time multiplied with the plasma activity curve to obtain the metabolite-corrected arterial plasma input function (mcAIF) used for the kinetic modeling.

[3] = target: T1, SV2A (Macaca fascicularis, UniProt Q4R4X3); experiment: Displacement PET studies of [^18F]UCB-H; type: in vivo, cynomolgus monkeys (Macaca fascicularis); conditions: about half of total uptake displaceable
T1 construct: The current study evaluates [^18F]UCB-H pharmacokinetics in healthy NHPs; from tissue; host or cells: brain of living healthy cynomolgus monkeys (in vivo PET)
Method: as §1
Solvents and LEV (C8H14N2O2; MM 170.21 g/mol) were obtained at Sigma-Aldrich® (France), and [^19F]-UCB-H (C16H12F4N2O; MM 324.28 g/mol) was synthesised as previously described. Injectable solutions of [^19F]-UCB-H for displacement studies were prepared with a mixture of Tetrahydrofuran (THF), Médialipide® and glucose at 2.5% as previously described. LEV was dissolved in a glucose solution of 2.5% to reach a concentration of 90 mg/mL.
PET image analysis was performed using PMOD software version 3.8 (PMOD Technologies Ltd., Zurich, Suisse). After individual co-registration of PET-MR images, a cynomolgus atlas published by Ballanger and coworkers was normalized to PET images to extract time activity curves in different brain regions. Volumes of interest (VOI) were cerebral white matter (16.7 cm^3), striatum (0.24 cm^3), thalamus (0.89 cm^3), cerebellum (3.83 cm^3), frontal—(2.50 cm^3), parietal—(5.35 cm^3), and temporal (8.22 cm^3) cortex, and whole brain (72.2 cm^3) as a composite region of all regions in the atlas. [^18F]UCB-H pharmacokinetics were evaluated by analyzing the time activity curves of the test- and retest scans using 1- and 2-tissue compartment models (unconstrained and constrained with global K1/k2 coupled fit across all regions, further referred to as 2TCM and 2TCM-c), and Logan graphical analysis with a fixed t* at 60 min [33] using the arterial plasma input function corrected for radio-metabolites to derive the volume of distribution in each region. Percentage standard error (%SE) was estimated from the theoretical parameter covariance matrix. Only reliable estimates (%SE less than 25%) were included in the current analyses. For the three drug studies, percent displacement of the total activity in the whole brain was estimated relative to an average baseline constructed from the two 4 h baseline studies. Briefly, Standardized Uptake Value (SUV) time activity curves (TACs) were calculated for the two baseline and the three displacement studies. Then, each curve was normalized to the SUV at t = 90 min, corresponding to the timeframe immediately before the administration of the drugs in the displacement studies. Baseline curves were averaged and the percent displacement of total activity was calculated as (baseline-displacement)/baseline at a given time post drug administration (see “Results”).

T1 sequence (Q4R4X3 whole entry): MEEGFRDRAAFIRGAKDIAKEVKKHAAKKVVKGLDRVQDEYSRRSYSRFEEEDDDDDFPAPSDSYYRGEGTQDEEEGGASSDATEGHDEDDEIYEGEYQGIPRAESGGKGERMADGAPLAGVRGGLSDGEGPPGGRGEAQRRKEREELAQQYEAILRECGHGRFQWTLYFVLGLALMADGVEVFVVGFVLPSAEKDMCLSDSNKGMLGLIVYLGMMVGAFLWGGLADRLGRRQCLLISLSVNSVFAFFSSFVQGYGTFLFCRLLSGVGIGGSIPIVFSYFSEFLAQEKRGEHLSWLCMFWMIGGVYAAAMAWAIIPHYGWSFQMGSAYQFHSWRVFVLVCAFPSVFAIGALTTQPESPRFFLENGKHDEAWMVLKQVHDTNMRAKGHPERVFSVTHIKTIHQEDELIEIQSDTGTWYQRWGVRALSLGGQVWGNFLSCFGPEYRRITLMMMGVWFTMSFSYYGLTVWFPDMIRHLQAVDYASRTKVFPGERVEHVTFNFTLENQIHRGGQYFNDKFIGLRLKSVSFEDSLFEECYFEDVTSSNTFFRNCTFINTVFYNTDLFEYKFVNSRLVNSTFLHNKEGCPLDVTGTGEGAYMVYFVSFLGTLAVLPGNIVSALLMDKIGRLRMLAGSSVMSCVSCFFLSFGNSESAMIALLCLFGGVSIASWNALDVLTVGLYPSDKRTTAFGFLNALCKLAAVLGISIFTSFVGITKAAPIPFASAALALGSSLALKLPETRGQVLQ

- Plasma free parent fraction (fp) [1]: 42.6 ± 1.6%
- intact parent fraction ([2]; 15 min after tracer injection): 37 ± 3.9%
- intact parent fraction ([2]; 30 min after tracer injection): 29.5 ± 3.4%
- intact parent fraction ([2]; 60 min after tracer injection): 19 ± 3.5%
- intact parent fraction ([2]; 120 min after tracer injection): 14.6 ± 1.9%
- intact parent fraction ([2]; 240 min after tracer injection): 4.4 ± 0.7%
- plasma to whole-blood ratio ([2]; over the entire 120-min acquisition period): 0.90 ± 0.05
- BPND expected from maximum displacement [3]: ~1.0
SMILES: O=C1C[C@H](c2cc(F)c(F)c(F)c2)CN1Cc1ccncc1[18F] [[^18F]UCB-H]
